# Data published in US20230045421A1 (priority 2018, published 2023).
# System: HBV rcDNA
# Experiment: HepDE19 assay with bDNA quantitation of HBV rcDNA
# Type: cell-based, hepatitis B virus
# Conditions: HepDE19 assay, inhibition of formation of rcDNA; read-out: DE-19bDNA EC50
# Summary of the method: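 HepDE19 cells (HepG2-derived, Tet-regulated HBV replication) were deprived of tetracycline and then exposed to compounds for 7 days at 37 °C in 0.5% DMSO, 8-point titration from 25 μM. rcDNA was quantified by bDNA and EC50/EC90 came from 4-parameter fits. CC50 was measured by CellTiter-Glo ATP content on replicate plates after 4 days.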
row,Structure (SMILES),EC50
1,"CC(c1cnc(N)c2ccccc12)N(C)C(=O)Nc1ccc(F)c(Cl)c1 (single isomer, unassigned) [Compound 238, 1-(1-(1-Aminoisoquinolin-4-yl)ethyl)-3-(3-chloro-4-fluorophenyl)-1-methylurea]",3400 nM
2,"CC(c1cnc(OCc2nc[nH]n2)c2ccccc12)N(CCCO)C(=O)Nc1ccc(F)c(Cl)c1 (single isomer, unassigned) [Compound 260, 1-(1-(1-((1H-1,2,4-Triazol-3-yl)methoxy)isoquinolin-4-yl)ethyl)-3-(3-chloro-4-fluorophenyl)-1-(3-hydroxypropyl)urea]",19 nM
3,"CC(c1c[nH]c(=O)c2ccccc12)N(CCCC#N)C(=O)Nc1ccc(F)c(Cl)c1 (single isomer, unassigned) [Compound 115, 3-(3-Chloro-4-fluorophenyl)-1-(3-cyanopropyl)-1-(1-(1-oxo-1,2-dihydroisoquinolin-4-yl)ethyl)urea]",10 nM
4,"CCOCCN(C(=O)Nc1ccc(F)c(Cl)c1)C(C)c1cnc(OC)c2ccccc12 (single isomer, unassigned) [Compound 126, 3-(3-Chloro-4-fluorophenyl)-1-(2-ethoxyethyl)-1-(1-(1-methoxyisoquinolin-4-yl)ethyl)urea]",630 nM
5,"CCN(C(=O)Nc1ccc(F)c(Cl)c1)C(c1cnc(OC)c2ccccc12)C(C)C (single isomer, unassigned) [Compound 45, 3-(3-Chloro-4-fluorophenyl)-1-ethyl-1-(1-(1-methoxyisoquinolin-4-yl)-2-methylpropyl)urea]",19000 nM
6,"COCCCN(C(=O)Nc1ccc(F)c(Cl)c1)C(C)c1cnc(OC)c2ccccc12 (single isomer, unassigned) [Compound 82, 3-(3-Chloro-4-fluorophenyl)-1-(1-(1-methoxyisoquinolin-4-yl)ethyl)-1-(3-methoxypropyl)urea]",320 nM
7,"CC(c1c[nH]c(=O)c2ccccc12)N(C[C@@H]1CCCO1)C(=O)Nc1ccc(F)c(Cl)c1 (single isomer, unassigned) [Compound 161]",150 nM
8,"CNC(=O)CCN(C(=O)Nc1ccc(F)c(Cl)c1)C(C)c1c[nH]c(=O)c2ccccc12 (single isomer, unassigned) [Compound 118, 3-(3-(3-Chloro-4-fluorophenyl)-1-(1-(1-oxo-1,2-dihydroisoquinolin-4-yl)ethyl)ureido)-N-methylpropanamide]",140 nM

# Same assay, conditions: HepDE19 assay, inhibition of formation of relaxed circular DNA (rcDNA), bDNA quantitation; read-out: DE-19bDNA EC50
row,Structure (SMILES),EC50
1,"CC(c1c[nH]c(=O)c2c(F)c(F)ccc12)N(C)C(=O)Nc1cc(F)c(F)c(F)c1 (single isomer, unassigned) [Compound 442, 1-(1-(7,8-Difluoro-1-oxo-1,2-dihydroisoquinolin-4-yl)ethyl)-1-methyl-3-(3,4,5-trifluorophenyl)urea]",4700 nM
2,"CCN(C(=O)Nc1ccc(F)c(F)c1)C(C)c1c[nH]c(=O)c2c(F)c(F)ccc12 (single isomer, unassigned) [Compound 463, 1-(1-(7,8-Difluoro-1-oxo-1,2-dihydroisoquinolin-4-yl)ethyl)-3-(3,4-difluorophenyl)-1-ethylurea]",8 nM
3,"CC(c1c[nH]c(=O)c2cc(F)c(F)cc12)N(CCS(N)(=O)=O)C(=O)Nc1ccc(F)c(Cl)c1 (single isomer, unassigned) [Compound 385, 2-(3-(3-Chloro-4-fluorophenyl)-1-(1-(6,7-difluoro-1-oxo-1,2-dihydroisoquinolin-4-yl)ethyl)ureido) ethane-1-sulfonamide]",2600 nM
4,"CC(c1c[nH]c(=O)c2cc(F)c(F)cc12)N(CCS(N)(=O)=O)C(=O)Nc1ccc(F)c(Cl)c1 (single isomer, unassigned) [Compound 386, 2-(3-(3-Chloro-4-fluorophenyl)-1-(1-(6,7-difluoro-1-oxo-1,2-dihydroisoquinolin-4-yl)ethyl)ureido) ethane-1-sulfonamide]",11 nM
5,"CC(C)CN(C(=O)Nc1ccc(F)c(Cl)c1)C(C)c1c[nH]c(=O)c2c(F)cccc12 (single isomer, unassigned) [Compound 360, 3-(3-Chloro-4-fluorophenyl)-1-(1-(8-fluoro-1-oxo-1,2-dihydroisoquinolin-4-yl)ethyl)-1-isobutylurea]",180 nM
6,"CC(c1c[nH]c(=O)c2c(F)c(F)ccc12)N(C)C(=O)Nc1ccc(F)c(C#N)c1 (single isomer, unassigned) [Compound 470, 3-(3-Cyano-4-fluorophenyl)-1-(1-(7,8-difluoro-1-oxo-1,2-dihydroisoquinolin-4-yl)ethyl)-1-methylurea]",2000 nM
7,"CC(c1c[nH]c(=O)c2c(F)c(F)ccc12)N(CCS(N)(=O)=O)C(=O)Nc1ccc(F)c(Cl)c1 (single isomer, unassigned) [Compound 392, 2-(3-(3-Chloro-4-fluorophenyl)-1-(1-(7,8-difluoro-1-oxo-1,2-dihydroisoquinolin-4-yl)ethyl)ureido) ethane-1-sulfonamide]",26 nM
8,"CC(c1cnc(OCc2ncn(C)n2)c2cc(F)c(F)cc12)N(C)C(=O)Nc1ccc(F)c(Cl)c1 (single isomer, unassigned) [Compound 347, 3-(3-Chloro-4-fluorophenyl)-1-(1-(6,7-difluoro-1-((1-methyl-1H-1,2,4-triazol-3-yl)methoxy)isoquinolin-4-yl)ethyl)-1-methylurea]",7 nM
9,"CC(C)CN(C(=O)Nc1ccc(F)c(Cl)c1)C(C)c1cn(C)c(=O)c2cc(F)c(F)cc12 (single isomer, unassigned) [Compound 342, 3-(3-Chloro-4-fluorophenyl)-1-(1-(6,7-difluoro-2-methyl-1-oxo-1,2-dihydroisoquinolin-4-yl)ethyl)-1-isobutylurea]",620 nM
10,"CC(c1c[nH]c(=O)c2c(F)c(F)ccc12)N(C)C(=O)Nc1cc(Cl)c(F)c(Cl)c1 (single isomer, unassigned) [Compound 452, 3-(3,5-Dichloro-4-fluorophenyl)-1-(1-(7,8-difluoro-1-oxo-1,2-dihydroisoquinolin-4-yl)ethyl)-1-methylurea]",47 nM
11,"CC(C)CN(C(=O)Nc1ccc(F)c(Cl)c1)C(C)c1c[nH]c(=O)c2c(F)cc(F)cc12 (single isomer, unassigned) [Compound 372, 3-(3-Chloro-4-fluorophenyl)-1-(1-(6,8-difluoro-1-oxo-1,2-dihydroisoquinolin-4-yl)ethyl)-1-isobutylurea]",5 nM
12,"CC(c1c[nH]c(=O)c2ccc(F)cc12)N(CCS(N)(=O)=O)C(=O)Nc1ccc(F)c(Cl)c1 (single isomer, unassigned) [Compound 381, 2-(3-(3-Chloro-4-fluorophenyl)-1-(1-(6-fluoro-1-oxo-1,2-dihydroisoquinolin-4-yl)ethyl)ureido) ethane-1-sulfonamide]",1400 nM

# Same assay, conditions: Hepatitis B virus, HepDE19, HepDE19 assay, inhibition of formation of rcDNA; read-out: DE-19bDNA EC50
row,Structure (SMILES),EC50
1,"COc1ncc(CNC(=O)Nc2ccc(F)c(C)c2)c2ccccc12 [Compound 7, 1-(4-Fluoro-3-methylphenyl)-3-((1-methoxyisoquinolin-4-yl)methyl)urea]",12000 nM
2,"CCN(Cc1cnc(OC)c2ccccc12)C(=O)Nc1ccc(F)c(Cl)c1 [Compound 15, 3-(3-Chloro-4-fluorophenyl)-1-ethyl-1-((1-methoxyisoquinolin-4-yl)methyl)urea]",1200 nM
3,"O=C(Nc1ccc(F)c(Cl)c1)N(CCO)Cc1c[nH]c(=O)c2ccccc12 [Compound 27, 3-(3-Chloro-4-fluorophenyl)-1-(2-hydroxyethyl)-1-((1-oxo-1,2-dihydroisoquinolin-4-yl)methyl)urea]",1000 nM
4,"COc1ncc(C(C)N(CCCO)C(=O)Nc2ccc(F)c(Cl)c2)c2ccccc12 (single isomer, unassigned) [Compound 140, 3-(3-Chloro-4-fluorophenyl)-1-(3-hydroxypropyl)-1-(1-(1-methoxyisoquinolin-4-yl)ethyl)urea]",230 nM

# Same assay, conditions: Hepatitis B virus, HepDE19, HepDE19 assay, inhibition of formation of relaxed circular DNA (rcDNA), bDNA quantitation; read-out: DE-19bDNA EC50
row,Structure (SMILES),EC50
1,"CC(c1c[nH]c(=O)c2ccccc12)N(CC(CO)CO)C(=O)Nc1ccc(F)c(Cl)c1 (single isomer, unassigned) [Compound 284, 3-(3-Chloro-4-fluorophenyl)-1-(3-hydroxy-2-(hydroxymethyl)propyl)-1-(1-(1-oxo-1,2-dihydroisoquinolin-4-yl)ethyl)urea]",92 nM

# Same assay, conditions: read-out: DE-19bDNA EC50; HepDE19 assay, inhibition of formation of rcDNA
row,Structure (SMILES),EC50
1,"CCN(C(=O)Nc1ccc(F)c(Cl)c1)C(c1ccccc1)c1c[nH]c(=O)c2ccccc12 (single isomer, unassigned) [Compound 70, 3-(3-Chloro-4-fluorophenyl)-1-ethyl-1-((1-oxo-1,2-dihydroisoquinolin-4-yl)(phenyl)methyl)urea]",16000 nM

# Same assay, conditions: read-out: DE-19bDNA EC50; HepDE19 assay, inhibition of formation of relaxed circular DNA (rcDNA), bDNA quantitation
row,Structure (SMILES),EC50
1,"CC(c1c[nH]c(=O)c2c(F)c(F)ccc12)N(C)C(=O)Nc1ccc(Cl)cc1 (single isomer, unassigned) [Compound 444, 3-(4-Chlorophenyl)-1-(1-(7,8-difluoro-1-oxo-1,2-dihydroisoquinolin-4-yl)ethyl)-1-methylurea]",17000 nM
2,"CC(c1c[nH]c(=O)c2cc(F)c(F)cc12)N(C)C(=O)Nc1ccccc1F (single isomer, unassigned) [Compound 420, 1-(1-(6,7-Difluoro-1-oxo-1,2-dihydroisoquinolin-4-yl)ethyl)-3-(2-fluorophenyl)-1-methylurea]",740 nM
3,"CC(c1c[nH]c(=O)c2c(F)c(F)ccc12)N(C)C(=O)Nc1cc(Cl)cc(Cl)c1 (single isomer, unassigned) [Compound 447, 3-(3,5-Dichlorophenyl)-1-(1-(7,8-difluoro-1-oxo-1,2-dihydroisoquinolin-4-yl)ethyl)-1-methylurea]",6500 nM
4,"CC(c1c[nH]c(=O)c2c(F)c(F)ccc12)N(C)C(=O)Nc1cc(Cl)cc(Cl)c1 (single isomer, unassigned) [Compound 448, 3-(3,5-Dichlorophenyl)-1-(1-(7,8-difluoro-1-oxo-1,2-dihydroisoquinolin-4-yl)ethyl)-1-methylurea]",70 nM
